In one data set the target is Egl nine homolog 1 (Homo sapiens, UniProt Q9GZT9). Briefly: Inhibition of PHD2 (181 to 426 residue) (unknown origin) measured by fluorescence polarization assay. (In fluorescence polarisation assays a small probe gives low polarisation when free and higher when bound to something large.)
Data set [1] is described as follows: Cytotoxicity against human Hep3B cells assessed as cell viability at 100 uM incubated for 24 hrs by CCK8 assay relative to control. The note with it: read-out: Activity. The format is toxicity, cell-based, Hep 3B2. (Formazan colour is commonly taken as a measure of viable cells.)
The subject of a further data set is Hep3B. Kind of data set: Induction of HIF-alpha stabilization in human Hep3B cells assessed as fold increase in EPO transcriptional activity at 5 uM incubated for 12 hrs by qRT-PCR analysis. In kind it is cell-based. Background: Real-time PCR tracks product formation cycle by cycle.
Data set [2] concerns Mus musculus. Briefly: Induction of reticulocytes production in C57BL/6 mouse at 20 mg/kg, po measured at day 3 and 3 days post-dose. The format is functional, organism-based. The note with it: time 3.0 day.
A short description of data set [3]: Toxicity in male ICR mouse assessed as change in kidney to body weight ratio at 15 to 100 mg/kg, po administered every other day and measured after 14 days. In kind it is organism-based. The note with it: in vivo, 336 h, dose 15-100 mg/kg, time 14 day.
Data set [4] is described as follows: Toxicity in ICR mouse assessed as increase in body weight at 15 to 100 mg/kg, po administered every other day and measured upto 14 days. The format is organism-based. Particulars: in vivo, 336 h, dose 15-100 mg/kg, time < 14 day.
Data set [5] in a line: Toxicity in male ICR mouse assessed as change in liver to body weight ratio at 15 to 100 mg/kg, po administered every other day and measured after 14 days. The format is organism-based. The note with it: in vivo, 336 h, dose 15-100 mg/kg, time 14 day.
Data set [6] in a line: Toxicity in male ICR mouse assessed as change in spleen to body weight ratio at 15 to 100 mg/kg, po administered every other day and measured after 14 days. The note with it: in vivo, 336 h, dose 15-100 mg/kg, time 14 day. In kind it is organism-based.
Data set [7] is described as follows: Toxicity in female ICR mouse assessed as change in heart to body weight ratio at 15 to 100 mg/kg, po administered every other day and measured after 14 days. The format is organism-based. The note with it: in vivo, 336 h, dose 15-100 mg/kg, time 14 day.
Data set [8] in a line: Toxicity in female ICR mouse assessed as change in spleen to body weight ratio at 15 to 100 mg/kg, po administered every other day and measured after 14 days. The format is organism-based. Particulars: in vivo, 336 h, dose 15-100 mg/kg, time 14 day.
Data set [9] in a line: Hepatotoxicity in ICR mouse assessed as effect on ALT level at 15 to 100 mg/kg, po administered every other day and measured after 14 days. In kind it is toxicity, organism-based. Particulars: in vivo, 336 h, dose 15-100 mg/kg, time 14 day.
Data set [10] is described as follows: Toxicity in female ICR mouse assessed as change in kidney to body weight ratio at 15 to 100 mg/kg, po administered every other day and measured after 14 days. The note with it: in vivo, 336 h, dose 15-100 mg/kg, time 14 day. The format is organism-based.
Data set [11] relates to Mus musculus. Briefly: Induction of reticulocytes production in po dosed C57BL/6 mouse measured at day 3 and 3 days post-dose. In kind it is functional, organism-based. Particulars: dose 10-50 mg/kg, time 3.0 day, DDE = dose-dependent effect.
Data set [12] can be described thus: Toxicity in male ICR mouse assessed as change in heart to body weight ratio at 15 to 100 mg/kg, po administered every other day and measured after 14 days. Particulars: in vivo, 336 h, dose 15-100 mg/kg, time 14 day. The format is organism-based.
Data set [13] in a line: Toxicity in female ICR mouse assessed as change in liver to body weight ratio at 15 to 100 mg/kg, po administered every other day and measured after 14 days. The format is organism-based. Particulars: in vivo, 336 h, dose 15-100 mg/kg, time 14 day.
A short description of data set [14]: Toxicity in female ICR mouse assessed as change in lung to body weight ratio at 15 to 100 mg/kg, po administered every other day and measured after 14 days. Particulars: in vivo, 336 h, dose 15-100 mg/kg, time 14 day. In kind it is organism-based.
Data set [15] in a line: Toxicity in ICR mouse assessed as spleen edema at 15 to 100 mg/kg, po administered every other day and measured after 14 days by H and E staining method. In kind it is organism-based. The note with it: in vivo, 336 h, dose 15-100 mg/kg, time 14 day.
The nature of data set [16]: Toxicity in ICR mouse assessed as liver edema at 15 to 100 mg/kg, po administered every other day and measured after 14 days by H and E staining method. Particulars: in vivo, 336 h, dose 15-100 mg/kg, time 14 day. The format is organism-based.
Data set [17] can be described thus: Toxicity in male ICR mouse assessed as change in lung to body weight ratio at 15 to 100 mg/kg, po administered every other day and measured after 14 days. In kind it is organism-based. Particulars: in vivo, 336 h, dose 15-100 mg/kg, time 14 day.
A short description of data set [18]: Toxicity in ICR mouse assessed as kidney edema at 15 to 100 mg/kg, po administered every other day and measured after 14 days by H and E staining method. The note with it: in vivo, 336 h, dose 15-100 mg/kg, time 14 day. In kind it is organism-based.
Data set [19] is described as follows: Toxicity in ICR mouse assessed as heart edema at 15 to 100 mg/kg, po administered every other day and measured after 14 days by H and E staining method. The format is organism-based. Particulars: in vivo, 336 h, dose 15-100 mg/kg, time 14 day.
Data set [20] can be described thus: Renal toxicity in ICR mouse assessed as effect on […] level at 15 to 100 mg/kg, po administered every other day and measured after 14 days. Particulars: in vivo, 336 h, dose 15-100 mg/kg, time 14 day. The format is organism-based.
Data set [21] can be described thus: Renal toxicity in ICR mouse assessed as effect on BUN level at 15 to 100 mg/kg, po administered every other day and measured after 14 days. The format is organism-based. Particulars: in vivo, 336 h, dose 15-100 mg/kg, time 14 day.
Data set [22] can be described thus: Toxicity in ICR mouse assessed as lung edema at 15 to 100 mg/kg, po administered every other day and measured after 14 days by H and E staining method. In kind it is organism-based. Particulars: in vivo, 336 h, dose 15-100 mg/kg, time 14 day.
Data set [23] is described as follows: Hepatotoxicity in ICR mouse assessed as effect on […] level at 15 to 100 mg/kg, po administered every other day and measured after 14 days. In kind it is toxicity, organism-based. Particulars: in vivo, 336 h, dose 15-100 mg/kg, time 14 day.

Each structure is given as a SMILES string. The source made the active and inactive calls. The rule behind the calls is not given here.

Sequence of Egl nine homolog 1 (Q9GZT9 whole entry): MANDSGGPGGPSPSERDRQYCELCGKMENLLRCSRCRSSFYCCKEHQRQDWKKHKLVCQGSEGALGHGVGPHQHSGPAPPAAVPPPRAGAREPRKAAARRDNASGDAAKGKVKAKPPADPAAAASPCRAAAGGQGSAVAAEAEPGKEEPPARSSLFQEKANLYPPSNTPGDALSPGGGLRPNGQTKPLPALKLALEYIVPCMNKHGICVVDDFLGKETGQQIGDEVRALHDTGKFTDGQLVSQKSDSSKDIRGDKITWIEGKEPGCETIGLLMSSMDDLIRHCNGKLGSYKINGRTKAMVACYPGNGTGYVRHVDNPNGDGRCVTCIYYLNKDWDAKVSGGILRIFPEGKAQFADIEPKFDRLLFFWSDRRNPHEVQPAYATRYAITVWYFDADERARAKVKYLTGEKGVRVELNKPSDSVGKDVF

For `O=C(O)CNC(=O)c1ncc(C2=CCN(S(=O)(=O)c3cccnc3)CC2)cc1O`, the IC50 (usually the point on the concentration scale where inhibition reaches its midpoint) at Egl nine homolog 1 worked out at 51.2 nM.

On Egl nine homolog 1, `O=C(O)CNC(=O)c1ncc(C2=CCN(S(=O)(=O)Cc3ccc(Br)cc3)CC2)cc1O` returned an IC50 of 6.95 nM. For the same compound, the viability at 24 h, 100 µM in data set [1] is > 80%. Also, the FC in the data set on Hep3B came out at 2. Further, the result in the data set on Mus musculus [2] was Active.

On Egl nine homolog 1, `O=C(O)CNC(=O)c1ncc(C2=CCN(S(=O)(=O)c3ccc4ccccc4c3)CC2)cc1O` had a concentration for half-maximal inhibition (IC50) of 97.4 nM. In other words, the double-digit nanomolar range.

For the compound `O=C(O)CNC(=O)c1ncc(C2=CCN(S(=O)(=O)Cc3ccccc3)CC2)cc1O`, the half-inhibitory concentration (IC50) against Egl nine homolog 1 came to 18.2 nM.

With `O=C(O)CNC(=O)c1ncc(C2=CCN(S(=O)(=O)c3ccc(Br)cc3)CC2)cc1O`, at Egl nine homolog 1, the IC50 was 29.7 nM.

For the compound `O=C(O)CNC(=O)c1ncc(C2=CCN(S(=O)(=O)Cc3ccc(F)cc3)CC2)cc1O`, half-maximal inhibition against Egl nine homolog 1 (IC50) required 6.31 nM. Further, the viability at 24 h, 100 µM in [1] was > 80%. Moreover, the result with Mus musculus [2] was Active.

The compound `O=C(O)CNC(=O)c1ncc(C2=CCN(S(=O)(=O)c3ccc(C(F)(F)F)cc3)CC2)cc1O` showed an IC50 against Egl nine homolog 1 of 72.3 nM.

Compound `Cc1ccc(S(=O)(=O)N2CC=C(c3cnc(C(=O)NCC(=O)O)c(O)c3)CC2)cc1` had an IC50 on Egl nine homolog 1 of 45.3 nM.

For `O=C(O)CNC(=O)c1ncc(C2=CCN(S(=O)(=O)Cc3ccc(OC(F)(F)F)cc3)CC2)cc1O`, the Activity entry in data set [3], in data set [4], in data set [5], in data set [6], in data set [7] and in data set [8] was “Non-Toxic” each time. Also, the Activity entry in [9] is “Non-Toxic”; in data set [10], “Non-Toxic”; in the data set with Mus musculus [11], “Dde”; in data set [12] it was “Non-Toxic”; in data set [13], “Non-Toxic”; in [14], “Non-Toxic”. In addition, the Activity entry in data set [15], in data set [16], in [17], in data set [18], in data set [19] and in [20] was “Non-Toxic” each time. The Activity entry in data set [21], in [22] and in data set [23] was “Non-Toxic” throughout. In addition, the concentration for half-maximal inhibition (IC50) at Egl nine homolog 1 amounted to 6.55 nM. The viability at 24 h, 100 µM in data set [1] is > 80%. Besides, the outcome with Mus musculus [2] was Active.

On Egl nine homolog 1, `O=C(O)CNC(=O)c1ncc(C2=CCN(S(=O)(=O)c3ccc(F)cc3)CC2)cc1O` came in with an IC50 of 43.5 nM.

`O=C(O)CNC(=O)c1ncc(C2=CCN(S(=O)(=O)c3ccccc3)CC2)cc1O` returned an IC50 against Egl nine homolog 1 of 132 nM.

Take `O=C(O)CNC(=O)c1ncc(C2=CCN(S(=O)(=O)Cc3ccc(Cl)cc3)CC2)cc1O`: half-maximal inhibition against Egl nine homolog 1 (IC50) required 6.14 nM. The viability at 24 h, 100 µM in data set [1] is > 80%. Further, the result with Mus musculus [2] was Active.

On to `CC(C)(C)c1ccc(S(=O)(=O)N2CC=C(c3cnc(C(=O)NCC(=O)O)c(O)c3)CC2)cc1`, for which half-maximal inhibition on Egl nine homolog 1 (IC50) required 796 nM.

In turn, `O=C(O)CNC(=O)c1ncc(C2=CCN(S(=O)(=O)c3cccs3)CC2)cc1O` gave an IC50 against Egl nine homolog 1 of 46.5 nM.

On Egl nine homolog 1, `O=C(O)CNC(=O)c1ncc(C2=CCN(S(=O)(=O)c3cccc4ccccc34)CC2)cc1O` displayed an IC50 of 22.4 nM.

In turn, `O=C(O)CNC(=O)c1ncc(C2=CCN(C(=O)c3ccc(Cl)cc3)CC2)cc1O` showed an IC50 at Egl nine homolog 1 of 25 nM. This IC50 and that of the compound before are within 1.5-fold of each other.

At Egl nine homolog 1, `O=C(O)CNC(=O)c1ncc(C2=CCN(S(=O)(=O)Cc3ccc(C(F)(F)F)cc3)CC2)cc1O` registered an IC50 of 7.97 nM. Moreover, the viability at 24 h, 100 µM in [1] was > 80%. In the data set on Mus musculus [2], the result was Active.

As for `O=C(O)CNC(=O)c1ncc(C2CCN(Cc3ccc(Cl)cc3)CC2)cc1O`, the IC50 against Egl nine homolog 1 worked out at 588 nM.

In turn, `O=C(O)CNC(=O)c1ncc(C2=CCN(S(=O)(=O)c3ccc(Cl)cc3)CC2)cc1O` registered an IC50 against Egl nine homolog 1 of 27 nM.

In turn, `O=C(O)CNC(=O)c1ncc(C2=CCN(S(=O)(=O)c3cccc(F)c3)CC2)cc1O` displayed a 50% inhibitory concentration (IC50) on Egl nine homolog 1 of 141 nM.

With `O=C(O)CNC(=O)c1ncc(C2=CCN(C(=O)Nc3ccc(Cl)cc3)CC2)cc1O`, the midpoint of inhibition at Egl nine homolog 1, the IC50, lay at 27 nM.

At Egl nine homolog 1, `O=C(O)CNC(=O)c1ncc(C2=CCN(S(=O)(=O)c3ccc(OC(F)(F)F)cc3)CC2)cc1O` had an IC50 of 50.9 nM.

`N#Cc1ccc(S(=O)(=O)N2CC=C(c3cnc(C(=O)NCC(=O)O)c(O)c3)CC2)cc1` had an IC50 at Egl nine homolog 1 of 20.7 nM.

Turning to `O=C(O)CNC(=O)c1ncc(C2=CCN(S(=O)(=O)c3ccccc3F)CC2)cc1O`, at Egl nine homolog 1, the IC50 stood at 82.8 nM. Compared with the last compound, the IC50 is about 4-fold higher.

`O=C(O)CNC(=O)c1ncc(C2=CCN(Cc3ccc(Cl)cc3)CC2)cc1O`: at Egl nine homolog 1, the IC50 was found to be 73.9 nM.

The values are drawn from ChEMBL document CHEMBL5137042, “Tetrahydropyridin-4-ylpicolinoylglycines as novel and orally active prolyl hydroxylase 2 (PHD2) inhibitors for the treatment of renal anemia” (Eur J Med Chem, 2022).
